Data reported in patent US7605163B2, “Benzoyl-piperazine derivatives” (Hoffmann-La Roche Inc., priority 2003, dated 2009).

The compounds below were run against T1, mGlyT-1b (Mus musculus, UniProt P28571) (assay: Glycine Uptake Inhibition Assay (mGlyT-1b)). Details: [3H]-glycine uptake inhibition at GlyT-1, Flp-in-CHO cells transfected with mGlyT-1b cDNA.
T1 construct: host or cells: Flp-in-CHO cells
T1 sequence (P28571 1-651 isoform P28571-2): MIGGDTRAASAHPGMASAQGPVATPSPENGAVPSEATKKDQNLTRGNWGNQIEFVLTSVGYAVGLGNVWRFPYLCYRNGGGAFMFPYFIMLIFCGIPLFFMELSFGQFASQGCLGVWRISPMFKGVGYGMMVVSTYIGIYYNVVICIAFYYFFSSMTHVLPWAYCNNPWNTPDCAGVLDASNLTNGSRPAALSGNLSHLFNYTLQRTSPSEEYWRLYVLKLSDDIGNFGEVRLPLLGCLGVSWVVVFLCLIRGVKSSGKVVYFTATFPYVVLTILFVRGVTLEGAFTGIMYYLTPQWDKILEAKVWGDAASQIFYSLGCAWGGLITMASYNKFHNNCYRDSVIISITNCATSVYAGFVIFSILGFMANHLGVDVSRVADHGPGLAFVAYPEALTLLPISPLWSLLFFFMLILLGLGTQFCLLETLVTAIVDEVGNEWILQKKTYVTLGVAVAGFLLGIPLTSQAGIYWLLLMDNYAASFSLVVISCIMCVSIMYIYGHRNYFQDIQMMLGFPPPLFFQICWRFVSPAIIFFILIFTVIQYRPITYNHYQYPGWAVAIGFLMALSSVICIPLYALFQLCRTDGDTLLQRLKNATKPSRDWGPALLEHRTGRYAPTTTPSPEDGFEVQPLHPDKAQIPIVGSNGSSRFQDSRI
Type: cell-based
Experimental: DMEM complete medium: Nutrient mixture F-12 (Gibco Life-technologies), fetal bovine serum (FBS) 5%, (Gibco life technologies), Penicillin/Streptomycin 1% (Gibco life technologies), Hygromycin 0.6 mg/ml (Gibco life technologies), Glutamine 1 mM Gibco life technologies)
Uptake buffer (UB): 150 mM NaCl, 10 mM Hepes-Tris, pH 7.4, 1 mM CaCl2, 2.5 mM KCl, 2.5 mM MgSO4, 10 mM (+) D-glucose. Flp-in™-CHO (Invitrogen Cat n^o R758-07) cells stably transfected with mGlyT1b cDNA.
Glycine Uptake Inhibition Assay (mGlyT-1b)
On day 1 mammalian cells, (Flp-in™-CHO), transfected with mGlyT-1b cDNA, were plated at the density of 40,000 cells/well in complete F-12 medium, without hygromycin in 96-well culture plates. On day 2, the medium was aspirated, and the cells were washed twice with uptake buffer (UB). The cells were then incubated for 20 min at 22° C. with either (i) no potential competitor, (ii) 10 mM non-radioactive glycine, (iii) a concentration of a potential inhibitor. A range of concentrations of the potential inhibitor was used to generate data for calculating the concentration of inhibitor resulting in 50% of the effect (e.g. IC50, the concentration of the competitor inhibiting glycine uptake of 50%).
A solution was then immediately added containing [^3H]-glycine 60 nM (11-16 Ci/mmol) and 25 μM non-radioactive glycine. The plates were incubated with gentle shaking, and the reaction was stopped by aspiration of the mixture and washing (three times) with ice-cold UB. The cells were lysed with scintillation liquid, shaken 3 hours and the radioactivity in the cells counted using a scintillation counter.

`CCCCOc1ccc([N+](=O)[O-])cc1C(=O)N1CCN(c2ccc(C(F)(F)F)cc2)CC1` [Example 66, (2-Butoxy-5-nitro-phenyl)-[4-(4-trifluoromethyl-phenyl)-piperazin-1-yl]-methanone] and `CCCOc1ccc([N+](=O)[O-])cc1C(=O)N1CCN(c2ccc(C(F)(F)F)cc2)CC1` [Example 72, (5-Nitro-2-propoxy-phenyl)-[4-(4-trifluoromethyl-phenyl)-piperazin-1-yl]-methanone] are within 1.5-fold of each other in IC50: 32 nM for the first, 26 nM for the second.

Going from `CC(C)(C)COc1ccc([N+](=O)[O-])cc1C(=O)N1CCN(c2ccc(C(F)(F)F)cc2)CC1` [Example 68, [2-(2,2-Dimethyl-propoxy)-5-nitro-phenyl]-[4-(4-trifluoromethyl-phenyl)-piperazin-1-yl]-methanone] to `O=C(c1cc([N+](=O)[O-])ccc1OCC(F)(F)F)N1CCN(c2ccc(C(F)(F)F)cc2)CC1` [Example 84, [5-Nitro-2-(2,2,2-trifluoro-ethoxy)-phenyl]-[4-(4-trifluoromethyl-phenyl)-piperazin-1-yl]-methanone], the IC50 rises from 8 nM to 40 nM (5-fold). The first is the more potent here.

Compared with `CC(C)COc1ccc([N+](=O)[O-])cc1C(=O)N1CCN(c2ccc(C(F)(F)F)cc2)CC1` [Example 70, (2-Isobutoxy-5-nitro-phenyl)-[4-(4-trifluoromethyl-phenyl)-piperazin-1-yl]-methanone], `O=C(c1cc([N+](=O)[O-])ccc1OCCCl)N1CCN(c2ccc(C(F)(F)F)cc2)CC1` [Example 92, [2-(2-Chloro-ethoxy)-5-nitro-phenyl]-[4-(4-trifluoromethyl-phenyl)-piperazin-1-yl]-methanone] is 6.2-fold higher in IC50: 8 nM for the first, 50 nM for the second. The first is the more potent here.

First: O=C(c1cc([N+](=O)[O-])ccc1OC1CCCC1)N1CCN(c2ccc(C(F)(F)F)cc2)CC1 [Example 71, (2-Cyclopentyloxy-5-nitro-phenyl)-[4-(4-trifluoromethyl-phenyl)-piperazin-1-yl]-methanone]
Second: O=C(c1cc([N+](=O)[O-])ccc1OC1CCC1)N1CCN(c2ccc(C(F)(F)F)cc2)CC1 [Example 74, (2-Cyclobutoxy-5-nitro-phenyl)-[4-(4-trifluoromethyl-phenyl)-piperazin-1-yl]-methanone]
The IC50 of the first is 2-fold lower: 8 nM for the first, 16 nM for the second. The first is the more potent here.

`O=C(c1cc([N+](=O)[O-])ccc1OCC(F)(F)C(F)F)N1CCN(c2ccc(C(F)(F)F)cc2)CC1` [Example 80, [5-Nitro-2-(2,2,3,3-tetrafluoro-propoxy)-phenyl]-[4-(4-trifluoromethyl-phenyl)-piperazin-1-yl]-methanone] and `O=C(c1cc([N+](=O)[O-])ccc1OCC(F)(F)C(F)(F)F)N1CCN(c2ccc(C(F)(F)F)cc2)CC1` [Example 100, [5-Nitro-2-(2,2,3,3,3-pentafluoro-propoxy)-phenyl]-[4-(4-trifluoromethyl-phenyl)-piperazin-1-yl]-methanone] are within 1.5-fold of each other in IC50: 29 nM for the first, 20 nM for the second.

Compared with `O=C(c1cc([N+](=O)[O-])ccc1OC1CC2CCC1C2)N1CCN(c2ccc(C(F)(F)F)cc2)CC1` (stereo not shown) [Example 88, [2-(Bicyclo[2.2.1]hept-2-yloxy)-5-nitro-phenyl]-[4-(4-trifluoromethyl-phenyl)-piperazin-1-yl]-methanone], `O=C(c1cc([N+](=O)[O-])ccc1OC1CCOCC1)N1CCN(c2ccc(C(F)(F)F)cc2)CC1` [Example 95, [5-Nitro-2-(tetrahydro-pyran-4-yloxy)-phenyl]-[4-(4-trifluoromethyl-phenyl)-piperazin-1-yl]-methanone] is 5-fold higher in IC50: 7 nM for the first, 35 nM for the second.

`CC(C)(Oc1ccc(S(C)(=O)=O)cc1C(=O)N1CCN(c2ccc(C(F)(F)F)cn2)CC1)C(F)(F)F` [Example 105, [5-Methanesulfonyl-2-(2,2,2-trifluoro-1,1-dimethyl-ethoxy)-phenyl]-[4-(5-trifluoromethyl-pyridin-2-yl)-piperazin-1-yl]-methanone] and `CS(=O)(=O)c1ccc(OCCC(F)(F)F)c(C(=O)N2CCN(c3ccc(C(F)(F)F)cc3F)CC2)c1` [compound 117] are within 1.5-fold of each other in IC50: 39 nM for the first, 44 nM for the second.

Going from `CC(C)Oc1ccc(S(C)(=O)=O)cc1C(=O)N1CCN(c2ccc(S(=O)(=O)C(F)(F)F)cc2)CC1` [Example 328, (2-Isopropoxy-5-methanesulfonyl-phenyl)-[4-(4-trifluoromethanesulfonyl-phenyl)-piperazin-1-yl]-methanone] to `CC(C)COc1ccc(S(C)(=O)=O)cc1C(=O)N1CCN(c2ccc(S(=O)(=O)C(F)(F)F)cc2)CC1` [Example 330, (2-Isobutoxy-5-methanesulfonyl-phenyl)-[4-(4-trifluoromethanesulfonyl-phenyl)-piperazin-1-yl]-methanone], the IC50 falls from 32 nM to 18 nM (1.8-fold). The second is the more potent here.

Compared with `CS(=O)(=O)c1ccc(OC2CCCC2)c(C(=O)N2CCN(c3ccc(S(=O)(=O)C(F)(F)F)cc3)CC2)c1` [Example 329, (2-Cyclopentyloxy-5-methanesulfonyl-phenyl)-[4-(4-trifluoromethanesulfonyl-phenyl)-piperazin-1-yl]-methanone], `CS(=O)(=O)c1ccc(OCC2CCC2)c(C(=O)N2CCN(c3ccc(C(F)(F)F)cc3)CC2)c1` [compound 139] is 1.5-fold higher in IC50: 16 nM for the first, 24 nM for the second. The first is the more potent here.

`CC(C)Oc1ccc(S(C)(=O)=O)cc1C(=O)N1CCN(c2ccc(C#N)c(F)c2F)CC1` [compound 109] and `CC(C)COc1ccc(S(C)(=O)=O)cc1C(=O)N1CCN(c2ccc(C#N)c(F)c2F)CC1` [compound 128] are within 1.5-fold of each other in IC50: 21 nM for the first, 20 nM for the second.

`CNS(=O)(=O)c1ccc(OC(F)(F)F)c(C(=O)N2CCN(c3ccc(C#N)c(F)c3)CC2)c1` [compound 111] and `CS(=O)(=O)c1ccc(OCC2CCC2)c(C(=O)N2CCN(c3ccc(C#N)c(F)c3)CC2)c1` [compound 137] are within 1.5-fold of each other in IC50: 35 nM for the first, 27 nM for the second.

`CS(=O)(=O)c1ccc(OCCC(F)(F)F)c(C(=O)N2CCN(c3ccc(C#N)cc3F)CC2)c1` [compound 112] and `CC(=O)c1ccc(N2CCN(C(=O)c3cc(S(C)(=O)=O)ccc3OCCC(F)(F)F)CC2)c(F)c1` [compound 118] are the same in IC50: 24 nM for the first, 24 nM for the second.

Compared with `CS(=O)(=O)c1ccc(OCCC(F)(F)F)c(C(=O)N2CCN(c3ccc(C(F)(F)F)c(F)c3)CC2)c1` [compound 116], `CC(C)COc1ccc(S(C)(=O)=O)cc1C(=O)N1CCN(c2cc(F)c(C#N)c(F)c2)CC1` [compound 169] is 1.6-fold lower in IC50: 19 nM for the first, 12 nM for the second. The second is the more potent here.

First: CS(=O)(=O)c1ccc(OC2CCCC2)c(C(=O)N2CCN(c3ccc(C#N)c(F)c3F)CC2)c1 [compound 131]
Second: CS(=O)(=O)c1ccc(OCC2CCC2)c(C(=O)N2CCN(c3ccc(C#N)c(F)c3F)CC2)c1 [compound 145]
The IC50 of the first is 2-fold higher: 30 nM for the first, 15 nM for the second. The second is the more potent here.

Compared with `CC(C)COc1ccc(S(C)(=O)=O)cc1C(=O)N1CCN(c2cc(F)c(C#N)cc2F)CC1` [compound 132], `CC(C)COc1ccc(S(C)(=O)=O)cc1C(=O)N1CCN(c2c(F)cc(C#N)cc2F)CC1` [compound 164] is 2-fold lower in IC50: 38 nM for the first, 19 nM for the second.

Going from `CS(=O)(=O)c1ccc(OC2CCCC2)c(C(=O)N2CCN(c3cc(F)c(C#N)cc3F)CC2)c1` [compound 135] to `CS(=O)(=O)c1ccc(OCC2CCC2)c(C(=O)N2CCN(c3cc(F)c(C#N)cc3F)CC2)c1` [compound 146], the IC50 falls from 41 nM to 19 nM (2.2-fold). The second is the more potent here.

First: CS(=O)(=O)c1ccc(OCC2CCC2)c(C(=O)N2CCN(c3ccc(C#N)cc3)CC2)c1 [compound 136]
Second: CS(=O)(=O)c1ccc(OCC2CCC2)c(C(=O)N2CCN(c3ccc(C#N)cc3F)CC2)c1 [compound 138]
The IC50 of the first is 1.6-fold higher: 27 nM for the first, 17 nM for the second.

`CC(=O)c1ccc(N2CCN(C(=O)c3cc(S(C)(=O)=O)ccc3OCC3CCC3)CC2)c(F)c1` [compound 142] and `CS(=O)(=O)c1ccc(OCC2CCC2)c(C(=O)N2CCN(c3ccc(C(F)(F)F)cc3C#N)CC2)c1` [compound 144] are within 1.5-fold of each other in IC50: 34 nM for the first, 45 nM for the second.

First: CS(=O)(=O)c1ccc(OCC2CCC2)c(C(=O)N2CCN(c3c(F)cc(C#N)cc3F)CC2)c1 [compound 147]
Second: CS(=O)(=O)c1ccc(OCC2CC2)c(C(=O)N2CCN(c3c(F)cc(C#N)cc3F)CC2)c1 [compound 165]
The IC50 of the first is 15-fold lower: 31 nM for the first, 470 nM for the second.

Compared with `CS(=O)(=O)c1ccc(OCC2CCC2)c(C(=O)N2CCN(c3cc(F)c(C#N)c(F)c3)CC2)c1` [compound 148], `CS(=O)(=O)c1ccc(OC2CCCC2)c(C(=O)N2CCN(c3c(F)cc(C#N)cc3F)CC2)c1` [compound 167] is 2.2-fold lower in IC50: 36 nM for the first, 16 nM for the second.
